Measurements from US8841233B2, “Herbicidal compositions comprising 4-amino-3-chloro-5-fluoro-6-(4-chloro-2-fluoro-3-methoxyphenyl) pyridine-2-carboxylic acid or a derivative thereof and 4-hydroxyphenyl-pyruvate dioxygenase (HPPD) inhibitors” (Dow Agrosciences LLC, priority 2012, dated 2014).

Assays:
ECHCG [1] = assay: Post-emergence foliar-applied weed control, greenhouse (Example I); format: in vivo, Echinochloa crusgalli (L.) Beauv.
From the text: (§1) Evaluation of Post-emergence Foliar-Applied Herbicidal Mixtures for Weed Control in Direct Seeded Rice
(§2) Seeds or nutlets of the desired test plant species were planted in a soil matrix prepared by mixing a loam or sandy loam soil (e.g., 28.6 percent silt, 18.8 percent clay, and 52.6 percent sand, with a pH of about 5.8 and an organic matter content of about 1.8 percent) and calcareous grit in an 80 to 20 ratio. The soil matrix was contained in plastic pots with a volume of 1 quart and a surface area of 83.6 square centimeters (cm^2). When required to ensure good germination and healthy plants, a fungicide treatment and/or other chemical or physical treatment was applied. The plants were grown for 8-22 days in a greenhouse with an approximate 14 h photoperiod which was maintained at about 29° C. during the day and 26° C. during the night. Nutrients (Peters Excel® 15-5-15 5-Ca 2-Mg and iron chelate) were applied in the irrigation solution as needed and water was added on a regular basis. Supplemental lighting was provided with overhead metal halide 1000-Watt lamps as necessary. The plants were employed for testing when they reached the first through fourth true leaf stage.
(§3) Treatments consisted of the acid or esters of 4-amino-3-chloro-5-fluoro-6-(4-chloro-2-fluoro-3-methoxy-phenyl)pyridine-2-carboxylic acid (Compound A), each formulated as an SC (suspension concentrate), and various herbicidal components alone and in combination. Forms of Compound A were applied on an acid equivalent basis.
(§4) Other herbicidal components were applied on an active ingredient basis and included 4-hydroxyphenyl pyruvate dioxygenase (HPPD)-inhibiting herbicides mesotrione formulated as Callisto®, sulcotrione formulated as Mikado®, pyrazolynate formulated as Sunbird® 10% GR, and benzobicyclon formulated as Benzobicyclon 3.5%.
(§5) Treatment requirements were calculated based upon the rates being tested, the concentration of active ingredient or acid equivalent in the formulation, and a 12 mL application volume at a rate of 187 L/ha.
(§6) For treatments comprised of formulated compounds, measured amounts of compounds were placed individually in 25 mL glass vials and diluted in a volume of 1.25% (v/v) Agri-Dex® crop oil concentrated to obtain 12× stock solutions. […] Application solutions were prepared by adding an appropriate amount of each stock solution (e.g., 1 mL) and diluted to the appropriate final concentrations with the addition of 10 mL of an aqueous mixture of 1.25% (v/v) crop oil concentrate so that the final spray solutions contained 1.25+/−0.05% (v/v) crop oil concentrate.
(§7) For treatments comprised of formulated and technical compounds, weighed amounts of the technical materials were placed individually in 25 mL glass vials and dissolved in a volume of 97:3 v/v acetone/DMSO to obtain 12× stock solutions, and measured amounts of the formulated compounds were placed individually in 25 mL glass vials and diluted in a volume of 1.5% (v/v) crop oil concentrate or water to obtain 12× stock solutions. […] Application solutions were prepared by adding an appropriate amount of each stock solution (e.g., 1 mL) and diluted to the appropriate final concentrations with the addition of an appropriate amount of an aqueous mixture of 1.5% (v/v) crop oil concentrate so that the final spray solutions contained 1.25% (v/v) crop oil concentrate. As required, additional water and/or 97:3 v/v acetone/DMSO was added to individual application solutions so that the final acetone and DMSO concentrations of the application solutions being compared were 8.1% and 0.25%, respectively.
(§8) All stock solutions and applications solutions were visually inspected for compound compatibility prior to application. Spray solutions were applied to the plant material with an overhead Mandel track sprayer equipped with a 8002E nozzles calibrated to deliver 187 L/ha over an application area of 0.503 m^2 at a spray height of 18 to 20 inches (46 to 50 cm) above average plant canopy height. […]

ECHOR = assay: In-water applied weed control, transplanted paddy rice, greenhouse (Example II); format: in vivo, Echinochloa oryzoides (Ard.) Fritsch
Protocol: (§9) Evaluation of in-Water Applied Herbicidal Mixtures for Weed Control in Transplanted Paddy Rice
(§10) Weed seeds or nutlets of the desired test plant species were planted in puddled soil (mud) prepared by mixing a shredded, non-sterilized mineral soil (50.5 percent silt, 25.5 percent clay, and 24 percent sand, with a pH of about 7.6 and an organic matter content of about 2.9 percent) and water at a 1:1 volumetric ratio. The prepared mud was dispensed in 365 mL aliquots into 16-ounce (oz.) non-perforated plastic pots with a surface area of 86.59 square centimeters (cm^2) leaving a headspace of 3 centimeters (cm) in each pot. Mud was allowed to dry overnight prior to planting or transplanting. Rice seeds were planted in Sun Gro MetroMix® 306 planting mixture, which typically has a pH of 6.0 to 6.8 and an organic matter content of about 30 percent, in plastic plug trays. Seedlings at the second or third leaf stage of growth were transplanted into 840 mL of mud contained in 32-oz. non-perforated plastic pots with a surface area of 86.59 cm^2 4 days prior to herbicide application. The paddy was created by filling the headspace of the pots with 2.5 to 3 cm of water. When required to ensure good germination and healthy plants, a fungicide treatment and/or other chemical or physical treatment was applied. The plants were grown for 4-22 days in a greenhouse with an approximate 14 h photoperiod which was maintained at about 29′C during the day and 26° C. during the night. Nutrients were added as Osmocote® (19:6:12, N:P:K+ minor nutrients) at 2 g per 16-oz. pot and 4 g per 32-oz. pot. Water was added on a regular basis to maintain the paddy flood, and supplemental lighting was provided with overhead metal halide 1000-Watt lamps as necessary. The plants were employed for testing when they reached the first through fourth true leaf stage.
as §3, with “(compound A)” for “(Compound A),”, “concentrate)” for “concentrate),”, “compound” for “Compound”
as §4, with “3.5% or technical material.” for “3.5%.”
(§11) Treatment requirements for each compound or herbicidal component were calculated based upon the rates being tested, the concentration of active ingredient or acid equivalent in the formulation, an application volume of 2 mL per component per pot, and an application area of 86.59 cm^2 per pot.
(§12) For formulated compounds, a measured amount was placed in an individual 100 or 200 mL glass vial and was dissolved in a volume of 1.25% (v/v) Agri-Dex® crop oil concentrate to obtain application solutions.
(§13) For technical grade compounds, a weighed amount was placed in an individual 100 to 200 mL glass vial and was dissolved in a volume of acetone to obtain concentrated stock solutions. […] The concentrated stock solutions obtained were diluted with an equivalent volume of an aqueous mixture containing 2.5% (v/v) crop oil concentrate so that the final application solutions contained 1.25% (v/v) crop oil concentrate.
(§14) Applications were made by injecting with a pipetter appropriate amounts of the application solutions, individually and sequentially, into the aqueous layer of the paddy. Control plants were treated in the same manner with the solvent blank. Applications were made so that all treated plant material received the same concentrations of acetone and crop oil concentrate.
(§15) The treated plants and control plants were placed in a greenhouse as described above and water was added as needed to maintain a paddy flood. […]

ECHCO = assay: Post-emergence foliar-applied weed control, greenhouse (Example I); format: in vivo, Echinochloa colona (L.) Link
From the text: as §1, §2, §3, §4, §5, §6, §7, §8

IPOHE = assay: as above; format: in vivo, Ipomoea hederacea Jacq.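 As to Visual Weed Control (%) - 20 DAA IPOHE Obs: visual score 0 no injury to 100 complete kill versus untreated plants.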
From the text: as §1, §2, §3, §4, §5, §6, §7, §8

ECHCG [2] = assay: In-water applied weed control, transplanted paddy rice, greenhouse (Example II); format: in vivo, Echinochloa crusgalli (L.) Beauv.; conditions: 22.5 gai/ha;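 also: visual score 0 no injury to 100 complete kill versus untreated plants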
Protocol: as §9, §10
as §3, with “(compound A)” for “(Compound A),”, “concentrate)” for “concentrate),”, “compound” for “Compound”
as §4, with “3.5% or technical material.” for “3.5%.”
as §11, §12, §13, §14, §15

BRAPP = assay: Post-emergence foliar-applied weed control, greenhouse (Example I); format: in vivo
From the text: as §1, §2, §3, §4, §5, §6, §7, §8

DIGSA = assay: as above; format: in vivo, Digitaria sanguinalis (L.) Scop.; conditions: 37.5 gai/ha
From the text: as §1, §2, §3, §4, §5, §6, §7, §8

Row | Structure (SMILES) | Visual Weed Control (%) - 21 DAA ECHCG Obs (ECHCG [1]; 17.5 gae/ha) | Visual Weed Control (%) - 21 DAA ECHCG Obs (ECHCG [1]; 35 gae/ha) | Visual Weed Control (%) -20 DAA ECHOR Obs (ECHOR; 35 gae/ha) | Visual Weed Control (%) -20 DAA ECHOR Obs (ECHOR; 70 gae/ha) | Visual Weed Control (%) - 20 DAA ECHCO Obs (ECHCO; 37.5 gai/ha) | Visual Weed Control (%) - 20 DAA ECHCO Obs (ECHCO; 75 gai/ha) | Visual Weed Control (%) - 20 DAA ECHCO Obs (ECHCO; 150 gai/ha) | Visual Weed Control (%) - 20 DAA ECHCG Obs (ECHCG [1]; 37.5 gai/ha) | Visual Weed Control (%) - 20 DAA ECHCG Obs (ECHCG [1]; 75 gai/ha) | Visual Weed Control (%) - 20 DAA ECHCG Obs (ECHCG [1]; 150 gai/ha) | Visual Weed Control (%) - 20 DAA ECHOR Obs (ECHOR; 22.5 gai/ha) | Visual Control (%) - 20 DAA IPOHE Obs (IPOHE; 37.5 gai/ha) | Visual Weed Control (%) - 20 DAA IPOHE Obs (IPOHE; 37.5 gai/ha) | Visual Weed Control (%) - 20 DAA IPOHE Obs (IPOHE; 75 gai/ha) | Visual Weed Control (%) - 20 DAA IPOHE Obs (IPOHE; 150 gai/ha) | Visual Weed Control (%) - 20 DAA ECHCG Obs (ECHCG [2]) | Visual Weed Control (%) - 20 DAA BRAPP Obs (BRAPP; 37.5 gai/ha) | Visual Weed Control (%) - 20 DAA BRAPP Obs (BRAPP; 75 gai/ha) | Visual Weed Control (%) - 20 DAA BRAPP Obs (BRAPP; 150 gai/ha) | Visual Weed Control (%) - 20 DAA DIGSA Obs (DIGSA)
1 | CCCCOC(=O)c1nc(-c2ccc(Cl)c(OC)c2F)c(F)c(N)c1Cl [Compound A n-Butyl Ester] | 78% | 93% | 35% | 40% |  |  |  |  |  |  |  |  |  |  |  |  |  |  |  | 
2 | CS(=O)(=O)c1ccc(C(=O)C2C(=O)CCCC2=O)c(Cl)c1 [Sulcotrione, 2-[2-chloro-4-(methylsulfonyl)benzoyl]-1,3-cyclohexanedione, reference compound] |  |  |  |  | 15% | 35% | 95% | 0% | 20% | 95% | 10% | 20% | 20% | 30% | 80% | 0% | 0% | 20% | 60% | 25%
